Experiments:
[1] = test system: (+)-HA966-induced enhancement of activity; test: (+)-HA966-induced enhancement of activity in mouse; assay type: in vivo, male ICR mouse; conditions: orally given at 10 mg/kg; below 50% judged to have the effect
From the text: Compound 1: • 3-(biphenyl-4-yl)-4-(2-methoxyphenyl)-5-methyl-4H-1,2,4-triazole (Japanese Patent unexamined uplication No. 2000-63363; Example 33) Compound 2: • 3-(biphenyl-4-yl)-5-(furan-2-yl)-4-phenyl-4H-1,2,4-triazole (LTPBP42 CD-ROM catalog 1996 of LaboTest Co. (Freiberg, Germany)) Compound 3: • 3-(biphenyl-4-yl)-5-ethyl-4-(2-methoxyphenyl)-4H-1,2,4-triazole (Japanese Patent unexamined publication No. 2000-63363; Example 23) 2. Experimental Method of (+)-HA966—Induced Enhancement of Activity in Mouse
The method reported previously (J. Neural Transm., 97: 175–185, 1994) was used for carrying out the experiment with modification. • Animal: male ICR mouse (Nippon SLC; age 5 to 7 weeks) • Chemical drug: reserpine (Apoplon Injection of 1 mg/ml; manufactured by Daiichi Pharmaceuticals Co., Ltd.), (+)-HA966 (Proc. Nat. Acad. Sci. U.S.A., 87, 347–351, 1990), α-methyl-para-tyrosine methyl ester (Sigma,Inc.). • Experimental apparatus: Supermex (Muromachi Machine) Experimental Method • (1) Pharmaceutical drug-treated groups were defined as follows. […] The effect was determined as follows. […] It was calculated by following formula. […]

[2] = test system: ECS-induced learning disability; test: Electric convulsion shock (ECS)-induced learning disability (mouse passive avoidance test); assay type: in vivo, male ddY mouse; conditions: dosed intraperitoneally; step-through latency, p<0.05
From the text: 4. Electric Convulsion Shock (ECS)—Induced Learning Disability (Mouse Passive Avoidance Test)
With reference to the previous report (Eur J Pharmacology, 321; 273–278, 1997), assessment was done as follows. • Animal: male ddY mouse (Nippon SLC; age 5 weeks at training) was used. 16 animals were used per one group. <Experimental Procedures> Preparation of Chemical Agents A test compound for oral administration was suspended in aqueous 0.5% methyl cellulose solution, and for intraperitoneal administration was suspended in solution dissolved 0.5% of methyl cellulose solution in saline The dose administered was 10 ml per 1 kg·body weight. As a placebo of the test compound, 10 ml of aqueous 0.5% methyl cellulose solution for oral administration and 10 ml of 0.5% methyl cellulose solution in saline for intraperitoneal administration (herein referred to as vehicle) was administrated. […] Test (24 Hours after the Training) • (1) The animals were left in the experimental room for one hour or longer. • (2) After the mice were placed in the bright room and left for 30 seconds, the guillotine door was opened. • (3) The time (step-through latency) required for the mice to cross the sensor of the dark room from the opening of the guillotine door was counted. […] A significance was determined at p<0.05.

Question: What does the source list for `CC(C)c1nnc(-c2ccc(-c3ccccc3)cc2)n1-c1ccccc1F` [Production Example 1, 3-Biphenyl-4-yl-4-(2-fluorophenyl)-5-isopropyl-4H-1,2,4-triazole]?
Answer: normalized activity ((+)-HA966-induced enhancement = 100%) [1]: 43%; minimum effective dose [2]: 10 mg/kg

Reference: US7034047B2, “Triazole derivative” (Astellas Pharma, Inc., priority 2000, dated 2006)
